Test results from US8173133B2, “Acyl pseudodipeptides which carry a functionalized auxiliary arm” (OM Pharma, priority 1999, dated 2012).
Where “and” joins values, the source holds several entries; their conditions need not be identical. Identical values can stand only once.

Experiments:
Leishmania LmCPb antigen [1] = test: Leishmania LmCPb immunization: IL-4 and γ IFN in lymph node cell supernatant (ELISA); type: in vivo, CBA mice; settings: pools a and b
Experimental: (§1) CBA mice were administered through the tail a single subcutaneous injection (100 μl) of Leishmania parasite LmCPb antigen (3 μg per mouse)±adjuvant. […] Eleven days after injection, inguinal and periaortic lymph node cells (2 groups of 3 mice each) were cultured in triplicate in presence of purified LmCPb antigen or whole extract of the parasite (amastigote). At day 4, a supernatant sample is withdrawn and stored at −20° C. for IL-4 and γ IFN assay. Finally, tritiated thymidine (^3H-TdR) is added to the cultures to measure the proliferation reaction.
(§2) Cytokine assay is carried out by a sandwich ELISA assay (OptEIA®) kits for γ IFN and IL-4, BD, PharMingen, Basel, Switzerland) and the proliferation response is determined by measuring thymidine take-up (^3H-TdR). ^3H-TdR take-up given in cpm as the arithmetic mean value±standard deviation ([…] of 3 mice each) and IL-4 concentration given in pg/ml are individually reported for each pool of 3 mice as the arithmetic mean of two measurements (cytokine assay).
(§3) An LmCPb stock solution is prepared at a concentration of 150 μg/ml in PBS
(§4) Adjuvants: The stock solution of OM-294-MP-AC is prepared at a concentration of 0.9 mg/ml in water for injection, with addition of 0.1% triethanolamine.
(§5) Antigen-adjuvant mixture: Adjuvant preparation (4 volumes), which had been adjusted to an adequate final concentration in sterile PBS, is mixed just prior to injection with the antigen stock solution (1 volume).

K562 cells = test: activation of NK cell cytotoxicity against K562 target cells (LDH release); type: cell-based, human
Experimental: PBMC were recovered from buffy coats according to the procedure previously described in example 4.6. […] Cells were incubated under such conditions for 24 hours. K562 cells (human leukemia cell line, ATCC #CCL 243, 20110-2209 Manassas (Va.), U.S.A.) were maintained in culture using RPMI medium containing 10% FCS and subjected to 2 passages per week.
In order to make cytotoxicity measurement, PBMC and K562 cells were washed twice in HBSS and resuspended in Phenol Red-free RPMI medium containing 5% FCS. PBMC were divided into a round bottom 96-well plate so as to achieve a PBMC/target ratio of 20/1, 10/1 and 5/1 in 50 μl volume. 5000 K562 cells (target) were added in each well using 50 μl of Phenol Red-free RPMI. Final volume was 100 μl. The plate was centrifuged to promote contact then incubated at 37° C. for 4 hours.
Cytotoxicity was assayed using a non radioactive CytoTox 96 kit based on measuring LDH release during cell lysis (kit #G1780, batch #124100, Promega, Madison, Wis.) according to the supplier's instructions.
The percentage of cytotoxicity was calculated according to the following equation: […]

[2] = test system: Limulus Amoebocyte Lysate
Leishmania LmCPb antigen [3] = test: Leishmania LmCPb immunization: lymph node cell proliferation (3H-TdR); type: in vivo, CBA mice; parameters: scale not given here
Experimental: as §1, §2, §3, §4, §5

MxA protein = MxA protein induction in dendritic cells (Western blot); type: cell-based, human; settings: 1 μg/ml; after 24 hr and 48 hours; FIGS. 77, 78
Experimental: The ability of products of the invention to induce production of antiviral MxA protein by predendritic cells has been assessed. MxA production by cells was measured after an SDS-PAGE electrophoretic separation by a Western Blot assay
Extraction and analysis of protein was conducted as follows: cells were harvested, then washed 3 times with PBS (phosphate buffered saline) and lyzed with a 100 Mm Tris-HCl buffer, 150 mM NaCl, 5 mM EDTA, 1% Triton-100 containing 1 mM PMSF (phenylmethylsulphonyl fluoride) and 1 μ/ml of pepstatin as protease inhibitors. Lysis was carried out at a density of 10^6 cells for 100 μl of (5×) buffer containing 60 mM Tris-HCl (pH 6.8), 10% glycerol, 2% SDS, 14.4 mM 2-mercaptoethanol and 0.1% bromophenol). Samples were heated up to 95° C. for 5 min. in sealed Eppendorf tubes. Electrophoresis was performed on a 10 cm×10 cm 12% acrylamide minigel by running a sample having the same number of cells. Migration was effected with the following buffer: 25 mM Tris, 192 mM glycine, 0.1% SDS, pH 8.3. […]
Non specific bonding sites on the membrane were blocked with 5% skimmed milk in TBS (10 mM Tris-HCl, 150 Mm NaCl, pH 7.4) and allowing to stand for 1 hour at room temperature. […] In this system, HRP catalyzes a luminol-mediated chemiluminescent reaction which can be detected on a photographic film. […]

Spleenic cells = test: murine spleenic cell proliferation (3H-TdR take-up); type: cell-based, CBA mice; settings: for increase of thymidine take-up: one day of culture
Experimental: Cell proliferation response is assessed by measuring triturated thymidine (^3H-TdR) take-up after 1 or 2 days of culture. Values reported in the table stand for the arithmetic mean±standard deviation of 4 cultures.

dendritic cells = test: in vivo maturation and migration of dendritic cells into the spleen; parameters: species or system mice; settings: i.v. 20 μg and s.c. 5 μg per mouse
From the text: Immunostaining of histological slides taken from spleen of animals treated with products of the invention reveal colocalization of mature dendritic cells and T cells in the […], as is seen with LPS treatment, whereas in untreated animals, no migration and maturation are observed.

Structure (SMILES): CCCCCCCCCCCC(=O)O[C@H](CCCCCCCCCCC)CC(=O)NC(CCOP(=O)(O)O)C(=O)NCCCC(COC(=O)CCCCCN)NC(=O)C[C@H](O)CCCCCCCCCCC (stereo partly drawn) [OM-197-MP-AC, 3-[(R)-3-dodecanoyloxytetra-decanoylamino]-4-oxo-5-aza-9-[(R)-3-hydroxytetradecanoylamino]-1,10-diol-dihydrogenphosphate 10-(6-aminohexanoate)]
- IL-4 production (Leishmania LmCPb antigen [1]; No challenge): <8 pg/mL
- IL-4 production (Leishmania LmCPb antigen [1]; in vitro challenge Amastigotes, first pair of lines): 55 pg/mL and 70 pg/mL
- IL-4 production (Leishmania LmCPb antigen [1]; in vitro challenge Amastigotes, second pair of lines): 29 pg/mL and 28 pg/mL
- IL-4 production (Leishmania LmCPb antigen [1]; in vitro challenge Con A): 103 pg/mL and 102 pg/mL
- IL-4 production (Leishmania LmCPb antigen [1]; in vitro challenge LmCPb): 12 pg/mL and 13 pg/mL
- NK activity level (K562 cells; 1 μg/ml): comparable or slightly inferior to that induced by LPS
- % cytotoxicity (K562 cells; Ratio PBMC:K562 5.1): 7.4%
- Optical density at 490 nm, K562 + PBMC (K562 cells; Ratio PBMC:K562 5.1): 1.5
- Optical density at 490 nm, PBMC alone (K562 cells; Ratio PBMC:K562 5.1): 0.027
- % cytotoxicity (K562 cells; Ratio PBMC:K562 10.1): 13.7%
- Optical density at 490 nm, K562 + PBMC (K562 cells; Ratio PBMC:K562 10.1): 1.66
- Optical density at 490 nm, PBMC alone (K562 cells; Ratio PBMC:K562 10.1): 0.084
- % cytotoxicity (K562 cells; Ratio PBMC:K562 20.1): 22%
- Optical density at 490 nm, K562 + PBMC (K562 cells; Ratio PBMC:K562 20.1): 1.8
- Optical density at 490 nm, PBMC alone (K562 cells; Ratio PBMC:K562 20.1, stimulus 24 hours): 0.084
- LAL EU/mg of product [2]: 6 EU/mg of product
- LAL ng of LPS equivalent per mg of product [2]: 0.48 ng of LPS equivalent per mg of product
- triturated thymidine take-up (Leishmania LmCPb antigen [3]; adjuvant 50 μg s.c. with LmCPb, in vitro: No challenge): 0.7 ± 0.1 CPM
- triturated thymidine take-up (Leishmania LmCPb antigen [3]; in vitro challenge Amastigotes 2 ×10^−6/ml): 1.6 ± 0.3 CPM
- triturated thymidine take-up (Leishmania LmCPb antigen [3]; in vitro challenge Amastigotes 6 ×10^−6/ml): 5.3 ± 1.5 CPM
- triturated thymidine take-up (Leishmania LmCPb antigen [3]; in vitro challenge Amastigotes 17 ×10^−6/ml): 12.6 ± 2.5 CPM
- triturated thymidine take-up (Leishmania LmCPb antigen [3]; in vitro challenge Amastigotes 50 ×10^−6/ml): 32.6 ± 5.2 CPM
- triturated thymidine take-up (Leishmania LmCPb antigen [3]; in vitro challenge Con A 5 μg/ml): 208.5 ± 56.0 CPM
- triturated thymidine take-up (Leishmania LmCPb antigen [3]; in vitro challenge LmCPb 0.6 μg/ml): 1.3 ± 0.5 CPM
- triturated thymidine take-up (Leishmania LmCPb antigen [3]; in vitro challenge LmCPb 5 μg/ml): 3.0 ± 1.1 CPM
- triturated thymidine take-up (Leishmania LmCPb antigen [3]; in vitro challenge LmCPb 15 μg/ml): 7.0 ± 0.7 CPM
- production of MxA protein (MxA protein): significant rise
- 3H-TdR take-up (Spleenic cells; 0.1 μg/ml, incubation 1 day): 8.7 ± 0.7 CPM × 10^−3
- 3H-TdR take-up (Spleenic cells; 0.1 μg/ml, incubation 2 days): 21.1 ± 1.3 CPM × 10^−3
- 3H-TdR take-up (Spleenic cells; 1 μg/ml, incubation 1 day): 34.3 ± 2.6 CPM × 10^−3
- 3H-TdR take-up (Spleenic cells; 1 μg/ml, incubation 2 days): 55.6 ± 5.2 CPM × 10^−3
- increase of thymidine take-up (Spleenic cells; 1 μg/ml): 5 fold
- 3H-TdR take-up (Spleenic cells; 10 μg/ml, incubation 1 day): 79.0 ± 12 CPM × 10^−3
- 3H-TdR take-up (Spleenic cells; 10 μg/ml, incubation 2 days): 92.7 ± 8.8 CPM × 10^−3
- increase of thymidine take-up (Spleenic cells; 10 μg/ml): 12 fold
- maturation and migration of dendritic cells in spleen (dendritic cells): induce maturation and migration of dendritic cells into the spleen
